Test results: patent US11040028B2, “Penicinotam derivative, preparation method and use thereof” (OCEAN UNIVERSITY OF CHINA, priority 2017, dated 2021)

How the values were obtained:
Assay type in all cases: cell-based
BHK-21 cells = assay: Anti-fibrosis activity test: inhibition of BHK-21 cell proliferation (CCK-8); settings: Mesocricetus auratus, BHK-21, 48 h
Summary of the method: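 Each concentration was tested in triplicate on adhered BHK-21 cells for 48 h, with pirfenidone as reference. A 2 h CCK-8 incubation preceded absorbance reading at 450 nm, and IC50 was obtained from percent inhibition versus blank.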

[1] = test system: human lung fibroblasts HFL1; assay: Anti-fibrosis activity test: inhibition of proliferation of human lung fibroblasts HFL1 (CCK-8); settings: Homo sapiens, HFL1, 48 h
Summary of the method: (§1)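 Proliferation read by CCK-8 (2 h, A450) after 48 h compound treatment of cells plated at 2×10^4 cells/mL and allowed 24 h attachment, triplicate per concentration. Inhibition rate derived from absorbance relative to untreated blank, with IC50 fitted; pirfenidone as positive control.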

[2] = test system: human hepatic stellate cells LX-2; assay: Anti-fibrosis activity test: inhibition of proliferation of human hepatic stellate cells LX-2 (CCK-8); settings: Homo sapiens, 48 h
Summary of the method: as §1

[3] = test system: human fibrosarcoma cells HT-1080; assay: Anti-fibrosis activity test: inhibition of proliferation of human fibrosarcoma cells HT-1080 (CCK-8); settings: Homo sapiens, HT-1080, 48 h
Summary of the method: as §1

[4] = test system: human dermal fibroblasts CCC-ESF-1; assay: Anti-fibrosis activity test: inhibition of proliferation of human dermal fibroblasts CCC-ESF-1 (CCK-8); settings: Fibroblast
Summary of the method: as §1

[5] = test system: human embryonic lung fibroblast IMR-90; assay: Anti-fibrosis activity test: inhibition of proliferation of human embryonic lung fibroblast IMR-90 (CCK-8)
Summary of the method: as §1

[6] = test system: cardiac fibroblast RAT-iCell-C002; assay: Anti-fibrosis activity test: inhibition of proliferation of cardiac fibroblast RAT-iCell-C002 (CCK-8); settings: Cardiac fibroblast, 48 h
Summary of the method: as §1

[7] = test system: mouse macrophages (RAW264.7); assay: Lipopolysaccharide-induced NO secretion in macrophages (Griess); settings: Mus musculus, RAW264.7, 24 h, RAW264.7, LPS 1 μg/ml, a/b isomers given as first/second symbol, read-out: IC50 (μM), inhibition of lipopolysaccharide-induced NO secretion in macrophages
Summary of the method: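 Percent inhibition of NO release was measured by Griess absorbance at 548 nm in supernatants. Cells were mouse RAW264.7 macrophages in 10% FBS DMEM, treated with graded compound concentrations and activated by LPS (1 μg/ml) for 24 h.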

[8] = CCK-8, 48 hours after administration
[9] = human lung fibroblasts HFL1, CCK-8, 48 hours
[10] = human hepatic stellate cells LX-2, CCK-8, 48 hours
[11] = human fibrosarcoma cells HT-1080, CCK-8, 48 hours
[12] = human dermal fibroblasts CCC-ESF-1, CCK-8, 48 hours
[13] = human embryonic lung fibroblast IMR-90, CCK-8, 48 hours
[14] = cardiac fibroblast RAT-iCell-C002, CCK-8, 48 hours
[15] = Homo sapiens, CCC-ESF-1 cells, 48 h, CCK-8
[16] = Homo sapiens, IMR-90 cells, 48 h, CCK-8

SMILES	IC50 (BHK-21 cells; [8])	IC50 [1, 9]	IC50 [2, 10]	IC50 [3, 11]	IC50 [4, 12]	IC50 [5, 13]	IC50 [6, 14]	IC50 [7]	IC50 (BHK-21 cells; 48 h, CCK-8)	IC50 ([1]; HFL1 cells, 48 h, CCK-8)	IC50 ([2]; LX-2, 48 h, LX-2 cells, CCK-8)	IC50 ([3]; HT-1080 cells, 48 h, CCK-8)	IC50 [4, 15]	IC50 [5, 16]	IC50 ([6]; RAT-iCell-C002 cells, CCK-8)
O=C1c2c(n(Cc3ccccc3F)c3cccc(Cl)c3c2=O)-c2cccn21 [Compound 480a, 8-Chloro-4-(2-fluorobenzyl)-9H-pyrrolizino[1,2-b]quinoline-9,10(4H)-dione]	0.05 to 5 mM	0.05 to 5 mM	0.05 to 5 mM	0.05 to 5 mM	0.05 to 5 mM	0.05 to 5 mM	< 0.05 mM	10 to 50 µM							
O=C1c2nc3ccccc3c(OCCN3CCCCC3)c2-c2cccn21 [Compound 784b, 11-(2-(piperidin-1-yl)ethoxy)-5H-pyrrolizino[2,1-b]quinolin-5-one]								1 to 10 µM	0.05 to 5 mM	0.05 to 5 mM	0.05 to 5 mM	0.05 to 5 mM	0.05 to 5 mM	0.05 to 5 mM	0.05 to 5 mM
O=C1c2nc3ccccc3c(OCCN3CCOCC3)c2-c2cccn21 [Compound 785b, 11-(2-morpholinoethoxy)-5H-pyrrolizino[2,1-b]quinolin-5-one]								1 to 10 µM	0.05 to 5 mM	0.05 to 5 mM	0.05 to 5 mM	0.05 to 5 mM	0.05 to 5 mM	0.05 to 5 mM	0.05 to 5 mM
N#Cc1cccc2nc3c(c(OCc4cccc(F)c4)c12)C(=O)n1cccc1-3 [Compound 463b, 9-((3-fluorobenzyl)oxy)-10-oxo-10H-pyrrolizino[1,2-b]quinoline-8-carbonitrile]	0.05 to 5 mM	0.05 to 5 mM	0.05 to 5 mM	0.05 to 5 mM	0.05 to 5 mM	0.05 to 5 mM	0.05 to 5 mM	1 to 10 µM							
O=C1c2c(n(Cc3ccccc3Cl)c3cccc(C(F)(F)F)c3c2=O)-c2cccn21 [Compound 472a, 4-(2-Chlorobenzyl)-8-(trifluoromethyl)-9H-pyrrolizino[1,2-b]quinoline-9,10(4H)-dione]	< 0.05 mM	0.05 to 5 mM	0.05 to 5 mM	0.05 to 5 mM	0.05 to 5 mM	0.05 to 5 mM	0.05 to 5 mM	1 to 10 µM							
O=C1c2c(n(Cc3cccc(F)c3)c3cc(F)ccc3c2=O)-c2cccn21 [Compound 491a, 6-Fluoro-4-(3-fluorobenzyl)-9H-pyrrolizino[1,2-b]quinoline-9,10(4H)-dione]	< 0.05 mM	0.05 to 5 mM	0.05 to 5 mM	0.05 to 5 mM	0.05 to 5 mM	0.05 to 5 mM	0.05 to 5 mM	10 to 50 µM							
O=C1c2c(c(=O)c3ccccc3n2CCN2CCOCC2)-c2cccn21 [Compound 785a, 6-(2-Morpholinoethyl)-5H-pyrrolizino[2,1-b]quinoline-5,11(6H)-dione]								1 to 10 µM	0.05 to 5 mM	0.05 to 5 mM	0.05 to 5 mM	< 0.05 mM	0.05 to 5 mM	0.05 to 5 mM	0.05 to 5 mM
O=C1c2nc3ccccc3c(OCCCN3CCNCC3)c2-c2cccn21 [Compound 793b, 11-(3-(piperazin-1-yl)propoxy)-5H-pyrrolizino[2,1-b]quinolin-5-one]								0.1 to 1 µM	0.05 to 5 mM	0.05 to 5 mM	0.05 to 5 mM	0.05 to 5 mM	0.05 to 5 mM	0.05 to 5 mM	0.05 to 5 mM
O=C1c2c(n(Cc3cccc(F)c3)c3cccc(F)c3c2=O)-c2cccn21 [Compound 475a, 8-Fluoro-4-(3-fluorobenzyl)-9H-pyrrolizino[1,2-b]quinoline-9,10(4H)-dione]	0.05 to 5 mM	0.05 to 5 mM	0.05 to 5 mM	5 to 20 mM	0.05 to 5 mM	0.05 to 5 mM	0.05 to 5 mM	1 to 10 µM							
